In patent publication US4472383A, “Peptide derivatives, their production and use” (Takeda Chemical Industries, Ltd., priority 1982, dated 1984):

Test system: Hypertensive Activity of Angiotensin I
Assay: Effect against hypertensive activity of angiotensin I in anesthetized-prepared rats (oral administration)
Assay type: in vivo, Male rats (Sprague-Dawley)
Settings: rat, 13.8 μM/kg orally, angiotensin I 300 ng/kg i.v., corrected for angiotensin II response; for Percent Inhibition (%) against Hypertensive Reaction by Angiotensin I After 20 min.: 20 min after administration; for Percent Inhibition (%) against Hypertensive Reaction by Angiotensin I After 60 min.: 60 min after administration; for Percent Inhibition (%) against Hypertensive Reaction by Angiotensin I After 120 min.: 120 min after administration
Protocol: Effect of Present Compounds against Hypertensive Activity of Angiotensin I Male rats (Sprague-Dawley) weighing 250 g to 350 g which were fed under free access to drinking water and feeds were used as experimental animals. The rats were anesthetized with intraperitoneal administration of pentobarbital sodium (50 mg/kg) on the day before the test day and a polyethylene tube was inserted into each of the femoral artery for measurement of blood pressure and the femoral vein for injection of angiotensin I and II, and then the tubes were fixed. […] Then, 13.8 μM/kg of the compound of this invention was administered orally as an aqueous solution or an aqueous gum arabic suspension, and 20, 60 and 120 minutes after the administration, angiotensin I and II were injected repeatedly to trace hypertensive reactions. In calculating the percent inhibition to the hypertensive activity of angiotensin I, the percent inhibitory value was corrected based on the variation with time in the hypertensive reaction by angiotensin II.

For CCCCOC(=O)[C@H](CCc1ccccc1)N[C@@H](C)C(=O)N(CC(=O)N[C@@H](Cc1ccccc1)C(=O)O)C1CCCC1.Cl [Example 6, N-[1(S)-butoxycarbonyl-3-phenylpropyl]-L-alanyl-N-cyclopentylglycyl-L-phenylalanine hydrochloride], the “Percent Inhibition (%) against Hypertensive Reaction by Angiotensin I After 20 min.” value was 72%, the “Percent Inhibition (%) against Hypertensive Reaction by Angiotensin I After 60 min.” value was 84% and the “Percent Inhibition (%) against Hypertensive Reaction by Angiotensin I After 120 min.” value was 72%.
With Br.CCOC(=O)[C@H](CCc1ccccc1)N[C@@H](C)C(=O)N(CC(=O)N[C@@H](Cc1ccccc1)C(=O)O)C1Cc2ccccc2C1 [Example 3, N-[1(S)-ethoxycarbonyl-3-phenylpropyl]-L-alanyl-N-(2-indanyl)glycyl-L-phenylalanine hydrobromide] the “Percent Inhibition (%) against Hypertensive Reaction by Angiotensin I After 20 min.” value was 67%, the “Percent Inhibition (%) against Hypertensive Reaction by Angiotensin I After 60 min.” value was 73% and the “Percent Inhibition (%) against Hypertensive Reaction by Angiotensin I After 120 min.” value was 77%.
